Assay results reported in patent US20040058999A1, “Compounds with anti-hiv activity” (priority 2002, published 2004).
Read-outs that look alike come from different tables or passages of the source.

Key:
[1] = test system: HIV virus; type: cell-based; conditions: for Neutralization Index: 200 μg/ml, 37°-1 h; for Viral titre after incubation at 37°-1 h with 200 μg/ml of drug: mean of 3 experiments
[2] = test system: HTLV IIIB; assay: HTLV IIIB-inhibitory activity on cultures of lymphocytes, % virus inhibition by PCR; type: cell-based
Protocol: HTLV IIIB-inhibitory activity of Xenaldial was tested on cultures of lymphocytes. The % virus inhibition was determined by means of PCR, according to the following procedure:
DNA was extracted from 5×10^4 lymphocytes using 400 μl lysate and incubating at 56° C./60′ and at 92° C./15′. Afterwards the mixture was cooled at room temperature and kept at 4° C.
The oligonucleotide SK19 (41 bases—corresponding to the internal sequence of the amplified pro-viral DNA) was synthesised, dissolved in water at a final concentration of 20 μm and 5′-labelled with polynucleotide kinase and ^32P-ATP.
Reagent preparation: Nucleotides: 125 μl of each nucleotide 10 mM were diluted to 1 ml with H2O (final concentration 1.25 mM); buffer 10×: KCl 2M—250 μl, TrisCl 1M pH8.3—100 μl, MgCl2 1M—20 μl, gelatine—10 mg, diluted to 1 ml with H2O;
Oligonucleotide pair: oligonucleotides SK38 and 39 were synthesised, purified and dissolved in a concentration of 200-300 μM.
Reaction: mixing buffer 10×, nucleotides (1.25 mM), oligonucleotide primer SK38 and SK39 15 μM, lysate, Taq polymerase 5 U/μl; denaturation 90° C./60′, annealing 55° C./30′, polymerisation 72° C./30′; repeat the cycle 30 times.

[3] = test system: various Arborvirus, Poxvirus, Nitavirus and Myxovirus strains; conditions: in words; cited from earlier work
[4] = test system: Lymphoblasts cultures; assay: Maximal dose tolerated by the cultures; type: cell-based; conditions: established in previous experiments
Protocol: (§1) Lymphoblasts cultures in stationary tubes (inoculum 200,000 cells/ml) at the 4th day from implant were used. A lactalbumin medium enriched with 20% decomplemented calf serum medium was used as culture medium (TC) and, as maintaining medium (TM), after infection of the cultures, a 199 supplemented with 1% bovine crystallized albumin and 2% calf serum was used. All media were added with penicillin (100 U.I/ml) and streptomycin (100 μg/ml). Viral dilutions were carried out with 199 only.
The dose used for each drug is the maximal dose tolerated by the cultures, established in previous experiments.

[5] = test system: A-PR8 Influenza virus; conditions: in words; cited from earlier work
[6] = test system: MHV-3 hepatitis virus; conditions: in words; cited from earlier work
[7] = test system: HIV virus; assay: Viral growth curve in infected lymphoblasts cultures in the presence of the tested compounds; type: cell-based
Protocol: as §1
Xenalamine (p-α-ethoxy-p-phenyl-phenacylaminobenzoic acid), xenalic acid (p-(4-biphenyl-glyoxylidene)-amino-benzoic acid) at a 12.5 μg dose; xenaldial (4,4′-bis-diphenylglyoxal hydrate) at a 25 μg dose.
The following procedure was used to evaluate the viral growth curve in the presence of the tested compounds: cultures were infected with 1 ml of viral fluid containing a cytopathogenic dose to obtain an about 1:1 LD50/cell ratio. 1 Hour after the infection at +36° C. and repeated washings with Hanks balanced saline solution, the viral fluid was replaced with TM for the control groups and with TM+drug for the tested cultures.
At time intervals, aliquots from three cultures were taken, washed with Hanks solution, then added with 1 ml of TM and frozen at −30° C.
At the end of the experiment, the culture fluids were thawed and refrozen twice, pooling each aliquot, then titred simultaneously with the corresponding fluids separated before freezing.

O.O.O=CC(=O)c1ccc(-c2ccc(C(=O)C=O)cc2)cc1 [xenaldial, 4-4′-bis-biphenylglyoxal dihydrate]
reduction of the pathogenic activity of the virus upon exposure (% of the logarithmic values compared with controls) ([1]; high viral titre): 8.3%
Neutralization Index ([1]; high viral titre (starting stock 6.5)): 0.5
Viral titre after incubation at 37°-1 h with 200 μg/ml of drug ([1]; high viral titre: starting stock titre 6.5, control after incubation 6.2): 6.0
virucidal activity (on extracellular viral particles) ([1]; in words): marked virucidal activity
reduction of the pathogenic activity of the virus upon exposure (% of the logarithmic values compared with controls) ([1]; low viral titre): 42.8%
Neutralization Index ([1]; low viral titre (starting stock 4.5)): 1.5
Viral titre after incubation at 37°-1 h with 200 μg/ml of drug ([1]; low viral titre: starting stock titre 4.5, control after incubation 3.5): 2.0
Inhibition % ([2]; 0.001 μM): 44%
Inhibition % ([2]; 0.01 μM): 30%
Inhibition % ([2]; 0.1 μM): 12%
Inhibition % ([2]; 1 μM): 16%
Inhibition % ([2]; 5 μM): 42%
Inhibition % ([2]; 20 μM): 26%
Inhibition % ([2]; 60 μM): 59%
Inhibition % ([2]; 100 μM): 77%
antiviral activity [3]: active
maximal dose tolerated by the cultures [4]: 25 µg
antiviral activity [5]: active
antiviral activity [6]: active
delay in the appearance of the virus in fluids compared with controls ([7]; drug added 1 h after infection, xenalamine 12.5 μg/ml, xenaldial 25 μg/ml): 24 h
reduction of the intra- and extracellular virus amount compared with controls, time up to which observed ([7]; xenaldial 25 μg/ml added 1 h and again 48 hours after the infection): up to 120 hours

O=C(O)c1ccc(N=CC(=O)c2ccc(-c3ccccc3)cc2)cc1 [xenalic acid, p-(4-biphenyl-glyoxylidene)-amino-benzoic acid]
virucidal activity (on extracellular viral particles) [1]: marked virucidal activity
maximal dose tolerated by the cultures [4]: 12.5 µg
inhibitory effect on intracellular viral replication ([7]; same experimental conditions, compared with xenaldial): lower than that of xenaldial
